Experimental data as given in PubChem BioAssay AID256 (DTP/NCI, 2004).
“And” between values parts separate entries of the source, which are not always exact repeats. Identical values can stand only once. Toxic doses and inconclusive results are not listed. The calls were made as follows: active = survival T/C of 150% or more; inactive = T/C below 125% in these data.

Tested on: CD2F1 mice, L1210 leukemia ip, survival T/C
Assay: NCI In Vivo Anticancer Drug Screen. Data for tumor model L1210 Leukemia (intraperitoneal) in CD2F1 (CDF1) mice
Settings: endpoint: mean survival time, higher = longer survival
Summary of the method: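 Activity against a transplanted murine tumor was judged by comparing the compound group with a vehicle group. The outcome in the treated animals was divided by that in the controls.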

[1] = dose: 25.0 mg/kg/injection, schedule: Q04DX002 (ip), vehicle: saline with Tween-80
[2] = dose: 50.0 mg/kg/injection, schedule: Q04DX002 (ip), vehicle: saline with Tween-80
[3] = dose: 100.0 mg/kg/injection, schedule: Q04DX002 (ip), vehicle: saline with Tween-80
[4] = dose: 100.0 mg/kg/injection, schedule: Q01DX009 (ip), vehicle: saline with Tween-80
[5] = dose: 200.0 mg/kg/injection, schedule: Q01DX009 (ip), vehicle: saline with Tween-80
[6] = dose: 100.0 mg/kg/injection, schedule: Q01DX001 (ip), vehicle: saline with Tween-80
[7] = dose: 200.0 mg/kg/injection, schedule: Q01DX001 (ip), vehicle: saline with Tween-80
[8] = dose: 100.0 mg/kg/injection, schedule: Q04DX003 (ip), vehicle: saline
[9] = dose: 200.0 mg/kg/injection, schedule: Q04DX003 (ip), vehicle: saline
[10] = dose: 400.0 mg/kg/injection, schedule: Q04DX003 (ip), vehicle: saline
[11] = dose: 100.0 mg/kg/injection, schedule: Q01DX001 (ip), vehicle: saline
[12] = dose: 200.0 mg/kg/injection, schedule: Q01DX001 (ip), vehicle: saline
[13] = dose: 400.0 mg/kg/injection, schedule: Q01DX001 (ip), vehicle: saline
[14] = dose: 100.0 mg/kg/injection, schedule: Q04DX003 (ip), vehicle: saline with Tween-80
[15] = dose: 200.0 mg/kg/injection, schedule: Q04DX003 (ip), vehicle: saline with Tween-80
[16] = dose: 400.0 mg/kg/injection, schedule: Q04DX003 (ip), vehicle: saline with Tween-80
[17] = dose: 200.0 mg/kg/injection, schedule: Q04DX002 (ip), vehicle: saline with Tween-80
[18] = dose: 400.0 mg/kg/injection, schedule: Q04DX002 (ip), vehicle: saline with Tween-80

Measured: T/C

C1=N/C=C\C=C/c2ccc[n+](CCCCC[n+]3ccccc3-c3ccccn3)c21
inactive: dose: 7.5 mg/kg/injection, schedule: Q01DX001 (ip), vehicle: saline 98 % of control | dose: 7.5 mg/kg/injection, schedule: Q04DX003 (ip), vehicle: saline 108 % of control | dose: 15.0 mg/kg/injection, schedule: Q01DX001 (ip), vehicle: saline 98 % of control | dose: 15.0 mg/kg/injection, schedule: Q04DX003 (ip), vehicle: saline 100 % of control | dose: 30.0 mg/kg/injection, schedule: Q01DX001 (ip), vehicle: saline 98 % of control | dose: 30.0 mg/kg/injection, schedule: Q04DX003 (ip), vehicle: saline 102 % of control

Cc1cc(C)c2nc(N)sc2c1
inactive: [1] 96 % of control | [2] 93 % of control | [3] 93 % of control

Cc1ccc(S(=O)(=O)OCCC=C(c2ccccc2)c2ccccc2)cc1
inactive: dose: 50.0 mg/kg/injection, schedule: Q01DX009 (ip), vehicle: saline with Tween-80 101 % of control | [4] 101 % of control | [5] 96 % of control

O=C(COc1ccccc1)NCc1ccc([N+](=O)[O-])cc1
inactive: dose: 50.0 mg/kg/injection, schedule: Q01DX001 (ip), vehicle: saline with Tween-80 96 % of control | [6] 96 % of control | [7] 91 % of control

CCOc1nc2nc[nH]c(=O)c2cc1C#N
inactive: dose: 12.5 mg/kg/injection, schedule: Q04DX002 (ip), vehicle: saline with Tween-80 90 % of control | [1] 93 % of control | [2] 104 % of control | [6] 107 % of control | [7] 95 % of control

CCCN(CCC)C(=O)[S-].CCCN(CCC)C(=O)[S-].[Ni+2]
inactive: dose: 6.25 mg/kg/injection, schedule: Q01DX009 (ip), vehicle: saline with Tween-80 95 % of control | dose: 6.25 mg/kg/injection, schedule: Q04DX003 (ip), vehicle: saline sonified 99 % of control | dose: 12.5 mg/kg/injection, schedule: Q01DX009 (ip), vehicle: saline with Tween-80 106 % of control | dose: 12.5 mg/kg/injection, schedule: Q04DX003 (ip), vehicle: saline sonified 97 % of control | dose: 25.0 mg/kg/injection, schedule: Q01DX009 (ip), vehicle: saline with Tween-80 106 % of control | dose: 25.0 mg/kg/injection, schedule: Q04DX003 (ip), vehicle: saline sonified 103 % of control

c1ccc2c3c(ccc2c1)-c1oncc1CC3
inactive: [8] 98 % of control | [9] 91 % of control | [10] 102 % of control

CC1CC(C)(O)CC(C(O)CC2CC(=O)NC(=O)C2)C1=O (stereo not drawn)
inactive: dose: 0.02 mg/kg/injection, schedule: Q01DX009 (ip), vehicle: saline 96 % of control and 102 % of control | dose: 0.04 mg/kg/injection, schedule: Q01DX009 (ip), vehicle: saline 105 % of control and 107 % of control | dose: 0.08 mg/kg/injection, schedule: Q01DX009 (ip), vehicle: saline 114 % of control | dose: 0.16 mg/kg/injection, schedule: Q01DX009 (ip), vehicle: saline 117 % of control and 122 % of control

O=C1c2ccccc2C(=O)N1OCCCN1C(=O)c2ccccc2S1(=O)=O
inactive: [11] 96 % of control | [12] 100 % of control | [13] 100 % of control

CCCC(C#N)(CCCl)c1ccccc1 (stereo not drawn)
inactive: [14] 101 % of control | [15] 101 % of control | [16] 96 % of control

COC(=O)c1[se]c(C(=O)OC)c(-c2ccccc2)c1-c1ccccc1
inactive: [11] 100 % of control | [12] 103 % of control | [13] 103 % of control

COc1ccc([N+](=O)[O-])cc1NC(=O)Nc1ccccc1C
inactive: [3] 92 % of control | [17] 88 % of control | [18] 95 % of control

O=c1ccccn1CC(O)S(=O)(=O)O (stereo not drawn)
inactive: [8] 95 % of control | [9] 92 % of control | [10] 100 % of control

O=C(O)CN1C(=O)CNC12CCCCC2
inactive: dose: 100.0 mg/kg/injection, schedule: Q04DX003 (ip), vehicle: other 102 % of control | dose: 200.0 mg/kg/injection, schedule: Q04DX003 (ip), vehicle: other 88 % of control | dose: 400.0 mg/kg/injection, schedule: Q04DX003 (ip), vehicle: other 104 % of control

CON(C)CC(O)c1ccccc1 (stereo not drawn)
inactive: [14] 94 % of control | [15] 92 % of control

CCN(C)c1cc2c3c(c1)CCCN3CCC2
inactive: dose: 1.25 mg/kg/injection, schedule: Q01DX009 (ip), vehicle: saline 103 % of control | dose: 2.5 mg/kg/injection, schedule: Q01DX009 (ip), vehicle: saline 104 % of control | dose: 5.0 mg/kg/injection, schedule: Q01DX001 (ip), vehicle: saline 100 % of control | dose: 5.0 mg/kg/injection, schedule: Q01DX009 (ip), vehicle: saline 98 % of control | dose: 10.0 mg/kg/injection, schedule: Q01DX001 (ip), vehicle: saline 101 % of control | dose: 20.0 mg/kg/injection, schedule: Q01DX001 (ip), vehicle: saline 102 % of control

CCOC(=O)Nc1cc2c(c(N)n1)N=C(c1ccc(Cl)cc1)CN2
inactive: dose: 3.0 mg/kg/injection, schedule: Q01DX009 (ip), vehicle: Klucel (hydroxypropylcellulose) (HPC) 110 % of control | dose: 6.0 mg/kg/injection, schedule: Q01DX009 (ip), vehicle: Klucel (hydroxypropylcellulose) (HPC) 110 % of control | dose: 12.0 mg/kg/injection, schedule: Q01DX009 (ip), vehicle: Klucel (hydroxypropylcellulose) (HPC) 114 % of control | dose: 12.5 mg/kg/injection, schedule: Q01DX001 (ip), vehicle: Klucel (hydroxypropylcellulose) (HPC) 102 % of control | dose: 25.0 mg/kg/injection, schedule: Q01DX001 (ip), vehicle: Klucel (hydroxypropylcellulose) (HPC) 111 % of control | dose: 25.0 mg/kg/injection, schedule: Q01DX009 (ip), vehicle: Klucel (hydroxypropylcellulose) (HPC) 110 % of control | dose: 50.0 mg/kg/injection, schedule: Q01DX001 (ip), vehicle: Klucel (hydroxypropylcellulose) (HPC) 114 % of control | dose: 100.0 mg/kg/injection, schedule: Q01DX001 (ip), vehicle: Klucel (hydroxypropylcellulose) (HPC) 116 % of control

NC(=O)N/N=C/c1ccc([N+](=O)[O-])s1
inactive: [14] 97 % of control | [15] 99 % of control | [16] 106 % of control

NC1CCC(C(=O)O)CC1 (stereo not drawn)
inactive: dose: 25.0 mg/kg/injection, schedule: Q01DX009 (ip), vehicle: saline 105 % of control | dose: 50.0 mg/kg/injection, schedule: Q01DX009 (ip), vehicle: saline 97 % of control and 105 % of control | dose: 100.0 mg/kg/injection, schedule: Q01DX009 (ip), vehicle: saline 94 % of control and 102 % of control | dose: 200.0 mg/kg/injection, schedule: Q01DX009 (ip), vehicle: saline 102 % of control

N#CC(C#N)=Cc1cccc2ccccc12
inactive: dose: 50.0 mg/kg/injection, schedule: Q04DX003 (ip), vehicle: Klucel (hydroxypropylcellulose) (HPC) 98 % of control | dose: 100.0 mg/kg/injection, schedule: Q04DX003 (ip), vehicle: Klucel (hydroxypropylcellulose) (HPC) 103 % of control | dose: 200.0 mg/kg/injection, schedule: Q04DX003 (ip), vehicle: Klucel (hydroxypropylcellulose) (HPC) 101 % of control

Clc1ccc(SCNc2ccccc2Cl)cc1
inactive: [3] 100 % of control | [17] 100 % of control | [18] 100 % of control

COc1cc(NCCCCNC(C)C)c2ncccc2c1
inactive: dose: 75.0 mg/kg/injection, schedule: Q01DX001 (ip), vehicle: saline 95 % of control

Brc1ccc(-c2nc3sc(-c4ccc(Br)cc4)nc3s2)cc1
inactive: [4] 108 % of control | [5] 104 % of control | dose: 400.0 mg/kg/injection, schedule: Q01DX009 (ip), vehicle: saline with Tween-80 102 % of control

CCCCCCCCCCCCCC[n+]1ccccc1
inactive: dose: 0.07 mg/kg/injection, schedule: Q01DX009 (ip), vehicle: saline 93 % of control | dose: 0.13 mg/kg/injection, schedule: Q01DX009 (ip), vehicle: saline 101 % of control | dose: 0.25 mg/kg/injection, schedule: Q01DX009 (ip), vehicle: saline 103 % of control | dose: 0.25 mg/kg/injection, schedule: Q04DX003 (ip), vehicle: saline sonified 102 % of control
